Assay: physchem
Settings: buffer or solvent, pH 7.2

Question: Which remaining at 4 h does the source give for `CC[C@H](C)[C@@H]1NC(=O)[C@@H]2CCCN2C(=O)[C@H](CO)NC(=O)[C@H](CCSC)NC(=O)[C@H](C)NC(=O)[C@H](CO)NC(=O)[C@@H]2CSSC[C@H](NC(=O)CN)C(=O)N[C@@H](CSSC[C@@H](C(N)=O)NC1=O)C(=O)N[C@@H](CO)C(=O)N[C@@H](Cc1cnc[nH]1)C(=O)N1CCC[C@H]1C(=O)N[C@@H](C(C)C)C(=O)N2` [TxID, α‐Conotoxin TxID] here?
Answer: The remaining at 4 h was about 50%.

Source: paper PMC6722883 (FEBS Open Bio, 2019)
